Here are results for 18 compounds from ChEMBL document CHEMBL5325432, “Systematic study of 1,2,3-triazolyl sterols for the development of new drugs against parasitic Neglected Tropical Diseases” (Eur J Med Chem, 2023).

Some results are limits rather than exact numbers.

A short description of data set [1]: Selectivity index, ratio of IC50 for cytotoxicity against African green monkey Vero cells to IC50 for antiparasitic activity against Trypanosoma brucei assessed as parasite growth inhibition. The settings on record: read-out: Ratio IC50. Type of data set: toxicity, cell-based.
Data set [2] is described as follows: Cytotoxicity against human MRC5 cells incubated for 7 days by MTT colorimetric assay. Type of data set: toxicity, cell-based. A general note: Tetrazolium assays rely on reduction of a dye to a coloured formazan, in cell work by metabolically active cells.
Another data set concerns Leishmania donovani. Put plainly: Antileishmanial activity against Leishmania donovani S1 promastigotes assessed as parasite growth inhibition incubated for 72 hrs by Alamar blue assay. To be noted: S1, 72 h. Type of data set: functional, organism-based. On the technique in general: The colour change of resazurin is a common sign of viable cells or microbes.
Another data set concerns Trypanosoma brucei. Put plainly: Antiparasitic activity against Trypanosoma brucei assessed as parasite growth inhibition incubated for 3 days by Alamar blue assay. It counts as functional, organism-based. To be noted: 72 h.
Another data set deals with Trypanosoma cruzi. Put plainly: Antiparasitic activity against Trypanosoma cruzi epimastigotes assessed as parasite growth inhibition incubated for 14 days by Alamar blue assay. It counts as functional, organism-based. To be noted: 336 h.
A short description of data set [3]: Cytotoxicity against African green monkey Vero cells incubated for 48 hrs. It counts as toxicity, cell-based. The settings on record: African green monkey (Chlorocebus sabaeus).
Data set [4] can be described thus: Selectivity index, ratio of IC50 for cytotoxicity against African green monkey Vero cells to IC50 for antileishmanial activity against Leishmania donovani S1 promastigotes assessed as parasite growth inhibition. Type of data set: toxicity, cell-based. The settings on record: read-out: Ratio IC50.
Data set [5] can be described thus: Selectivity index, ratio of IC50 for cytotoxicity against African green monkey Vero cells to IC50 for antiparasitic activity against Trypanosoma cruzi epimastigotes assessed as parasite growth inhibition. The settings on record: read-out: Ratio IC50. It counts as toxicity, cell-based.

As to `Nc1nc(N)nc(Nc2ccc([As]3SCC(CO)S3)cc2)n1` (stereo not drawn) [MELARSOPROL], the selectivity ratio in data set [1] is 62.5. In data set [2], this compound yielded an IC50 at 7 days of 12500 nM.
As to `CCCCCCCCn1cc(CN[C@@H](C)[C@H]2CC[C@H]3[C@@H]4CC=C5C[C@@H](O)CC[C@]5(C)[C@H]4CC[C@]23C)nn1`, the IC50 in the data set on Leishmania donovani is 1470 nM; in the data set on Trypanosoma brucei, 550 nM; with Trypanosoma cruzi it was 1950 nM. Also, the IC50 at 48 h in data set [3] is more than 9790 nM. Moreover, the selectivity ratio in data set [4] is more than 6.67; in data set [1], more than 17.8; in data set [5], more than 5.02.
Regarding `CC(=O)O[C@H]1CC[C@@]2(C)C(=CC[C@H]3[C@@H]4CC[C@H]([C@H](C)NCc5cn(Cc6ccccc6)nn5)[C@@]4(C)CC[C@@H]32)C1`, the IC50 in the data set with Leishmania donovani amounted to 2540 nM; with Trypanosoma brucei it was 200 nM; with Trypanosoma cruzi, 2550 nM. Also, in data set [3], the IC50 at 48 h is more than 9420 nM. The values for the selectivity ratio in data set [4], in data set [1] and in data set [5] were more than 3.7, more than 47.1 and more than 3.69, respectively.
In the case of `CC(=O)O[C@H]1CC[C@@]2(C)C(=CC[C@H]3[C@@H]4CC[C@H]([C@H](C)NCc5cn(CCCc6ccccc6)nn5)[C@@]4(C)CC[C@@H]32)C1`, the IC50 in the data set with Leishmania donovani stood at 2990 nM; in the data set on Trypanosoma brucei, 200 nM; in the data set on Trypanosoma cruzi, 6300 nM. The compound also gave a 50% inhibitory concentration (IC50) at 48 h in data set [3] of more than 8950 nM. In addition, the selectivity ratio in data set [4] is more than 2.99; in data set [1], more than 44.7; in data set [5] it was more than 1.42.
Regarding `C[C@]12CC[C@H]3[C@@H](CC=C4C[C@@H](O)CC[C@@]43C)[C@@H]1CC[C@@H]2[C@@](C)(O)CNCc1cn(Cc2ccccc2)nn1`, the IC50 stood at 1950 nM in the data set with Leishmania donovani, 120 nM in the data set with Trypanosoma brucei and 8280 nM in the data set on Trypanosoma cruzi. For the same compound, in data set [3], the IC50 at 48 h is more than 9640 nM. Besides, the selectivity ratio in data set [4] is more than 4.95; in data set [1], more than 80.3; in data set [5] it was more than 1.16.
Regarding `CC1CS(=O)(=O)CCN1/N=C/c1ccc([N+](=O)[O-])o1` (stereo not drawn) [NIFURTIMOX], the selectivity ratio in data set [1] turned out to be 18.8; in data set [5], 15.2.
On to `C[C@H](NCc1cn(Cc2ccccc2)nn1)[C@H]1CC[C@H]2[C@@H]3CC=C4C[C@@H](O)CC[C@]4(C)[C@H]3CC[C@]12C`, for which the figures for the IC50 in the data set on Leishmania donovani, in the data set with Trypanosoma brucei and in the data set with Trypanosoma cruzi were 1330 nM, 680 nM and 330 nM, respectively. Besides, the IC50 at 48 h in data set [3] was more than 10200 nM. Further, the selectivity ratio was more than 7.69 in data set [4], more than 15 in data set [1] and more than 31 in data set [5].
For the compound `C[C@@H](NCc1cn(Cc2ccccc2)nn1)[C@H]1CC[C@H]2[C@@H]3CC=C4C[C@@H](O)CC[C@]4(C)[C@H]3CC[C@]12C`, the IC50 was 6140 nM in the data set with Leishmania donovani, 1770 nM with Trypanosoma brucei and 2470 nM with Trypanosoma cruzi. This compound yielded an IC50 at 48 h in data set [3] of more than 10200 nM. Further, the results for the selectivity ratio in data set [4], in data set [1] and in data set [5] were more than 1.67, more than 5.78 and more than 4.14, respectively.
As for `C[C@H](NCc1cn(CCCc2ccccc2)nn1)[C@H]1CC[C@H]2[C@@H]3CC=C4C[C@@H](O)CC[C@]4(C)[C@H]3CC[C@]12C`, the figures for the IC50 in the data set with Leishmania donovani, in the data set on Trypanosoma brucei and in the data set on Trypanosoma cruzi were 1350 nM, 1430 nM and 2220 nM, respectively. Moreover, the IC50 at 48 h in data set [3] was more than 9680 nM. Also, the selectivity ratio in data set [4] is more than 7.14; in data set [1], more than 6.77; in data set [5], more than 4.36.
In the case of `C#CCN[C@@H](C)[C@H]1CC[C@H]2[C@@H]3CC=C4C[C@@H](OC(C)=O)CC[C@]4(C)[C@H]3CC[C@]12C`, the IC50 in the data set on Leishmania donovani was more than 10000 nM; with Trypanosoma brucei, 1800 nM; in the data set on Trypanosoma cruzi, 8880 nM. In addition, in data set [3], the IC50 at 48 h is more than 11900 nM. Besides, the figures for the selectivity ratio in data set [1] and in data set [5] were more than 6.44 and more than 1.31, respectively.
`CCCCCCCCn1cc(CNC[C@](C)(O)[C@H]2CC[C@H]3[C@@H]4CC=C5C[C@@H](O)CC[C@]5(C)[C@H]4CC[C@@]32C)nn1`: the results for the IC50 with Leishmania donovani, in the data set on Trypanosoma brucei and with Trypanosoma cruzi were 1460 nM, 630 nM and 8130 nM, respectively. Moreover, the IC50 at 48 h in data set [3] was more than 9240 nM. In addition, the selectivity ratio in data set [4] was more than 6.33; in data set [1], more than 14.7; in data set [5], more than 1.14.
For the compound `CC(C)=CCC/C(C)=C/Cn1cc(CN[C@@H](C)[C@H]2CC[C@H]3[C@@H]4CC=C5C[C@@H](O)CC[C@]5(C)[C@H]4CC[C@]23C)nn1`, the half-inhibitory concentration (IC50) with Leishmania donovani worked out at 1680 nM; with Trypanosoma brucei, 640 nM; with Trypanosoma cruzi, 3170 nM. The same compound registered an IC50 at 48 h in data set [3] of more than 9350 nM. Moreover, the selectivity ratio is more than 5.56 in data set [4], more than 14.6 in data set [1] and more than 2.95 in data set [5].
With `O=C(Cn1ccnc1[N+](=O)[O-])NCc1ccccc1` [BENZNIDAZOLE], the IC50 in the data set on Trypanosoma cruzi was found to be 7400 nM. The selectivity ratio in data set [5] amounted to 1.9.
With `CC(=O)O[C@H]1CC[C@@]2(C)C(=CC[C@H]3[C@@H]4CC[C@H]([C@@H](C)NCc5cn(CCCc6ccccc6)nn5)[C@@]4(C)CC[C@@H]32)C1`, the IC50 in the data set with Leishmania donovani was more than 10000 nM; with Trypanosoma brucei it was 200 nM; in the data set with Trypanosoma cruzi, 4500 nM. Further, in data set [3], the IC50 at 48 h is more than 8950 nM. The selectivity ratio in data set [1] is more than 44.7; in data set [5], more than 1.99.
For `CC(C)=CCC/C(C)=C/Cn1cc(CNC[C@](C)(O)[C@H]2CC[C@H]3[C@@H]4CC=C5C[C@@H](O)CC[C@]5(C)[C@H]4CC[C@@]32C)nn1`, the IC50 is 780 nM in the data set on Leishmania donovani, 650 nM with Trypanosoma brucei and 9000 nM with Trypanosoma cruzi. The IC50 at 48 h in data set [3] is more than 8850 nM. The values for the selectivity ratio in data set [4], in data set [1] and in data set [5] were more than 11.4, more than 13.6 and more than 0.98, respectively.
Regarding `CCOC(=O)Cn1cc(CN[C@@H](C)[C@H]2CC[C@H]3[C@@H]4CC=C5C[C@@H](OC(C)=O)CC[C@]5(C)[C@H]4CC[C@]23C)nn1`, the values for the IC50 with Leishmania donovani, in the data set on Trypanosoma brucei and in the data set on Trypanosoma cruzi were 4900 nM, 660 nM and 7800 nM, respectively. The compound also gave an IC50 at 48 h in data set [3] of more than 9490 nM. In addition, the selectivity ratio is more than 1.94 in data set [4], more than 14.4 in data set [1] and more than 1.22 in data set [5].
In the case of `CCCCCc1cn(C[C@](C)(O)[C@H]2CC[C@H]3[C@@H]4CC=C5C[C@@H](O)CC[C@]5(C)[C@H]4CC[C@@]32C)nn1`, the values for the IC50 in the data set on Leishmania donovani, in the data set on Trypanosoma brucei and in the data set on Trypanosoma cruzi were more than 10000 nM, 180 nM and 6330 nM, respectively. Moreover, the IC50 at 48 h in data set [3] was more than 10600 nM. Moreover, the selectivity ratio in data set [1] was more than 59.8; in data set [5] it was more than 1.68.
Consider `C[C@@H](NCc1cn(CCCc2ccccc2)nn1)[C@H]1CC[C@H]2[C@@H]3CC=C4C[C@@H](O)CC[C@]4(C)[C@H]3CC[C@]12C`, for which the IC50 with Leishmania donovani was determined as 1940 nM; in the data set with Trypanosoma brucei it was 1820 nM; in the data set on Trypanosoma cruzi it was 6480 nM. The same compound registered an IC50 at 48 h in data set [3] of more than 9420 nM. Further, the selectivity ratio in data set [4] is more than 5; in data set [1] it was more than 5.18; in data set [5], more than 1.45.

For orientation: IC50 means the midpoint of a concentration-inhibition curve.
